Experimental data reported in patent US20210115018A1, “PIPERIDINE COMPOUNDS AS COVALENT MENIN INHIBITORS” (THE REGENTS OF THE UNIVERSITY OF MICHIGAN, priority 2018, published 2021).
pIC50: −log10 of the molar value.

What follows are compounds tested against T1, menin protein (Homo sapiens, UniProt O00255) (assay: Fluorescence polarization (FP) competitive binding assay, menin binding affinity). Settings: FP competition with FAM-MM2 probe 2 nM, menin 4 nM, 30 minutes room temperature.
T1 sequence (O00255 1-610): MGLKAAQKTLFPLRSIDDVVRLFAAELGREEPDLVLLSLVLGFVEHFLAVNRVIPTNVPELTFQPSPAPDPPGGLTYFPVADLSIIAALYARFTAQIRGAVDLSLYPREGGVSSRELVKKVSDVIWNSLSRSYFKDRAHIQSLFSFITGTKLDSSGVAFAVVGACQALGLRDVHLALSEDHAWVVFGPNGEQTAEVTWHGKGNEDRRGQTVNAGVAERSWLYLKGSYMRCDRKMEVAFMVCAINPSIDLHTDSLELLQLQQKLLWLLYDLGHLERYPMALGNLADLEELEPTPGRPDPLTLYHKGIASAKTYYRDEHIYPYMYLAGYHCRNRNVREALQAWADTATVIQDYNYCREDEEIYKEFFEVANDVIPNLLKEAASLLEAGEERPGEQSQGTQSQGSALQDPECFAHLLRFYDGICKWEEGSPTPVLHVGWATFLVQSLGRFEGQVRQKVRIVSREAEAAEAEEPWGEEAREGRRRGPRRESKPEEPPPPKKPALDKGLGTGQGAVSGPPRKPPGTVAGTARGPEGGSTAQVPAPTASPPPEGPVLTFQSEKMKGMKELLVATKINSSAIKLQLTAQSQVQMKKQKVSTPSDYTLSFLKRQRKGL
Protocol: A fluorescence polarization (FP) competitive binding assay was used to determine the binding affinities of representative menin inhibitors. A FAM labeled fluorescent probe was designed and synthesized based on a MLL1 peptide (FAM-MM2). Equilibrium dissociation constant (Kd) value of FAM-MM2 to menin protein was determined from protein saturation experiments by monitoring the total fluorescence polarization of mixtures composed with the fluorescent probe at a fixed concentration and the protein with increasing concentrations up to full saturation. Serial dilutions of the protein were mixed with FAM-MM2 to a final volume of 200 μl in the assay buffer (PBS with 0.02% Bovine γ-Globulin and 4% DMSO. 0.01% Triton X-100 was added right before assays). Final FAM-MM2 concentration was 2 nM. Plates were incubated at room temperature for 30 minutes with gentle shaking to assure equilibrium. FP values in millipolarization units (mP) were measured using the Infinite M-1000 plate reader (Tecan U.S., Research Triangle Park, N.C.) in Microfluor 1 96-well, black, v-bottom plates (Thermo Scientific, Waltham, Mass.) at an excitation wavelength of 485 nm and an emission wavelength of 530 nm.
The IC50 of representative Compounds of the Disclosure, see Table 3, were determined in a competitive binding experiment. Mixtures of 5 μl of the tested compounds in DMSO and 195 μl of preincubated protein/probe complex solution in the assay buffer were added into assay plates which were incubated at room temperature for 30 minutes with gentle shaking. Final concentration of the menin protein was 4 nM, and final probe concentration is 2 nM. Negative controls containing protein/probe complex only (equivalent to 0% inhibition), and positive controls containing only free probes (equivalent to 100% inhibition), were included in each assay plate. FP values were measured as described above. IC50 values were determined by nonlinear regression fitting of the competition curves.

pIC50 | SMILES
7.06 | COC(=O)N[C@H]1CCC[C@@H]1[C@@](CN1CCC1)(c1cccc(F)c1)C1CCN(CC2CN(c3ccc(S(=O)(=O)C4CN(C(=O)/C=C/CN5CCOCC5)C4)cc3)C2)CC1 [Cpd. No. 31, methyl ((1S,2R)-2-((R)-2-(azetidin-1-yl)-1-(3-fluorophenyl)-1-(1-((1-(4-((1-((E)-4-morpholinobut-2-enoyl)azetidin-3-yl)sulfonyl)phenyl)azetidin-3-yl)methyl)piperidin-4-yl)ethyl)cyclopentyl)carbamate]
8.70 | C=C(CN1CCOCC1)C(=O)N1CC(S(=O)(=O)c2ccc(N3CC(CN4CCC([C@@](C#N)(c5cccc(F)c5)[C@H]5CCC[C@@H]5NC(=O)OC)CC4)C3)cc2)C1 [Cpd. No. 28, methyl ((1S,2R)-2-((S)-cyano(3-fluorophenyl)(1-((1-(4-((1-(2-(morpholinomethyl)acryloyl)azetidin-3-yl)sulfonyl)phenyl)azetidin-3-yl)methyl)piperidin-4-yl)methyl)cyclopentyl)carbamate]
8.70 | C=C(CN1CCC(O)CC1)C(=O)N1CC(S(=O)(=O)c2ccc(N3CC(CN4CCC([C@@](CN5CCC5)(c5cccc(F)c5)[C@H]5CCC[C@@H]5NC(=O)OC)CC4)C3)cc2)C1 [Cpd. No. 23, methyl ((1S,2R)-2-((S)-2-(azetidin-1-yl)-1-(3-fluorophenyl)-1-(1-((1-(4-((1-(2-((4-hydroxypiperidin-1-yl)methyl)acryloyl)azetidin-3-yl)sulfonyl)phenyl)azetidin-3-yl)methyl)piperidin-4-yl)ethyl)cyclopentyl)carbamate]
8.70 | COC(=O)N[C@H]1CCC[C@@H]1[C@](CN1CCC(C)(O)CC1)(c1cccc(F)c1)C1CCN(CC2CN(c3ccc(S(=O)(=O)C4CN(C(=O)/C=C/CN(C)C)C4)cc3)C2)CC1 [Cpd. No. 8, methyl ((1S,2R)-2-((S)-1-(1-((1-(4-((1-((E)-4-(dimethylamino)but-2-enoyl)azetidin-3-yl)sulfonyl)phenyl)azetidin-3-yl)methyl)piperidin-4-yl)-1-(3-fluorophenyl)-2-(4-hydroxy-4-methylpiperidin-1-yl)ethyl)cyclopentyl)carbamate]
8.00 | C=CC(=O)N1CCN(C(=O)OC)CC(S(=O)(=O)c2ccc(N3CC(CN4CCC([C@@](CN5CCC5)(c5cccc(F)c5)[C@H]5CCC[C@@H]5NC(=O)OC)CC4)(OC)C3)cc2)C1 (stereo partly shown) [compound 242]
8.40 | C=CC(=O)N1CCCC[C@H](S(=O)(=O)c2ccc(N3CC(F)(CN4CCC([C@@](CN5CCC5)(c5cccc(F)c5)[C@H]5CCC[C@@H]5NC(=O)OC)CC4)C3)c(F)c2)C1 [compound 237]
8.70 | COC(=O)N[C@H]1CCC[C@@H]1[C@](CN1CCOCC1)(c1cccc(F)c1)C1CCN(CC2CN(c3ccc(S(=O)(=O)C4CN(C(=O)/C=C/CN(C)C)C4)cc3)C2)CC1 [Cpd. No. 6, methyl ((1S,2R)-2-((S)-1-(1-((1-(4-((1-((E)-4-(dimethylamino)but-2-enoyl)azetidin-3-yl)sulfonyl)phenyl)azetidin-3-yl)methyl)piperidin-4-yl)-1-(3-fluorophenyl)-2-morpholinoethyl)cyclopentyl)carbamate]
8.70 | COC(=O)N[C@H]1CCC[C@@H]1[C@](CN1CCC1)(c1cc(F)cc(F)c1)C1CCN(CC2(F)CN(c3ccc(S(=O)(=O)C4CN(C(=O)/C=C/CN(C)C)C4)cc3)C2)CC1 [Cpd. No. 11, methyl ((1S,2R)-2-((S)-2-(azetidin-1-yl)-1-(3,5-difluorophenyl)-1-(1-((1-(4-((1-((E)-4-(dimethylamino)but-2-enoyl)azetidin-3-yl)sulfonyl)phenyl)-3-fluoroazetidin-3-yl)methyl)piperidin-4-yl)ethyl)cyclopentyl)carbamate]
8.30 | C=C(CN1CCOCC1)C(=O)N1CC(S(=O)(=O)c2cccc(N3CC(CN4CCC([C@@](CN5CCC5)(c5cccc(F)c5)[C@H]5CCC[C@@H]5NC(=O)OC)CC4)C3)c2)C1 [Cpd. No. 30, methyl ((1S,2R)-2-((S)-2-(azetidin-1-yl)-1-(3-fluorophenyl)-1-(1-((1-(3-((1-(2-(morpholinomethyl)acroyloyl)azetidin-3-yl)sulfonyl)phenyl)azetidin-3-yl)methyl)piperidin-4-yl)ethyl)cyclopentyl)carbamate]
8.70 | C=CC(=O)N1CC(S(=O)(=O)c2ccc(N3CC(CN4CCC([C@@](CN5CCC5)(c5cccc(F)c5)[C@H]5CCC[C@@H]5NC(=O)OC)CC4)C3)cc2)C1 [Cpd. No. 14, methyl ((1S,2R)-2-((S)-1-(1-((1-(4-((1-acryloylazetidin-3-yl)sulfonyl)phenyl)azetidin-3-yl)methyl)piperidin-4-yl)-2-(azetidin-1-yl)-1-(3-fluorophenyl)ethyl)cyclopentyl)carbamate]
8.52 | C=CC(=O)N1CC(S(=O)(=O)c2ccc(N3CC(F)(CN4CCC([C@@](CN5CCC5)(c5cccc(F)c5)[C@H]5CCC[C@@H]5NC(=O)OC)CC4)C3)cc2)C1 [Cpd. No. 16, methyl ((1S,2R)-2-((S)-1-(1-((1-(4-((1-acryloylazetidin-3-yl)sulfonyl)phenyl)-3-fluoroazetidin-3-yl)methyl)piperidin-4-yl)-2-(azetidin-1-yl)-1-(3-fluorophenyl)ethyl)cyclopentyl)carbamate]
8.00 | C=CC(=O)N1CCN(C(C)=O)CC(S(=O)(=O)c2ccc(N3CC(CN4CCC([C@@](CN5CCC5)(c5cccc(F)c5)[C@H]5CCC[C@@H]5NC(=O)OC)CC4)(OC)C3)cc2)C1 (stereo partly shown) [compound 241]
8.22 | C=CC(=O)N1CCN(C(C)=O)[C@@H](CS(=O)(=O)c2ccc(N3CC(CN4CCC([C@@](CN5CCC5)(c5cccc(F)c5)[C@H]5CCC[C@@H]5NC(=O)OC)CC4)(OC)C3)cc2)C1 [compound 239]
8.40 | C=CC(=O)N1CCCC[C@H](S(=O)(=O)c2ccc(N3CC(CN4CCC([C@@](CN5CCC5)(c5cccc(F)c5)[C@H]5CCC[C@@H]5NC(=O)OC)CC4)(OC)C3)c(F)c2)C1 [compound 235]
8.52 | C=C(CN(C)C)C(=O)N1CC(S(=O)(=O)c2ccc(N3CC(CN4CCC([C@@](CN5CCC5)(c5cccc(F)c5)[C@H]5CCC[C@@H]5NC(=O)OC)CC4)C3)cc2)C1 [Cpd. No. 10, methyl ((1S,2R)-2-((S)-2-(azetidin-1-yl)-1-(1-((1-(4-((1-(2-((dimethylamino)methyl)acryloyl)azetidin-3-yl)sulfonyl)phenyl)azetidin-3-yl)methyl)piperidin-4-yl)-1-(3-fluorophenyl)ethyl)cyclopentyl)carbamate]
8.40 | C=CC(=O)N1CCCC[C@H](S(=O)(=O)c2ccc(N3CC(F)(CN4CCC([C@@](CN5CCC5)(c5cccc(F)c5)[C@H]5CCC[C@@H]5NC(=O)OC)CC4)C3)cc2)C1 [compound 236]
